The results in this text go back to BindingDB's records for doi:10.1016/S0960-894X(00)80068-2 (1994).

As a reminder, the Ki is the dissociation constant of the complex between target and ligand, obtained from inhibition or displacement.

Assay [1] can be described thus: Binding affinity for Sigma opioid receptor type 1 in guinea pig brain homogenate with 0.5 nM [3H](+)-PENT.
Assay [2] concerns the target Sigma intracellular receptor 2 (Cavia porcellus). The assay can be described thus: Binding affinity for Sigma opioid receptor type 2 in guinea pig brain homogenate with 4 nM [3H]-(+)-DTG.

For the molecule `O=C1NC(c2ccccc2)(c2ccccc2)C(=O)N1CCN1CCC(c2ccccc2)CC1` [5,5-Diphenyl-3-[2-(4-phenyl-piperidin-1-yl)-ethyl]-imidazolidine-2,4-dione], the Ki worked out at 0.017 µM in assay [1] and 0.043 µM in assay [2].

With `O=C1NC(c2ccccc2)(c2ccccc2)C(=O)N1CCCN1CCC(c2ccccc2)CC1` [5,5-Diphenyl-3-[3-(4-phenyl-piperidin-1-yl)-propyl]-imidazolidine-2,4-dione], the Ki in assay [1] came to 0.022 µM; in assay [2] it was 0.025 µM.

Take `O=C1NC(c2ccccc2)(c2ccccc2)C(=O)N1CCCCN1CCN(c2ccccc2)CC1` [5,5-Diphenyl-3-[4-(4-phenyl-piperazin-1-yl)-butyl]-imidazolidine-2,4-dione]: the Ki in assay [1] stood at 0.328 µM; in assay [2], 0.049 µM.

With `O=C1NC(c2ccccc2)(c2ccccc2)C(=O)N1CCCCCN1CCN(c2ccccc2)CC1` [5,5-Diphenyl-3-[5-(4-phenyl-piperazin-1-yl)-pentyl]-imidazolidine-2,4-dione], the Ki in assay [1] and in assay [2] was 0.019 µM throughout.
